# Entries after “also recorded” stand apart in the source; their conditions may differ. Read-outs that look alike come from different tables or passages of the source.
# T1: OprF (Pseudomonas aeruginosa, UniProt P13794)
# T1 sequence (P13794 25-350): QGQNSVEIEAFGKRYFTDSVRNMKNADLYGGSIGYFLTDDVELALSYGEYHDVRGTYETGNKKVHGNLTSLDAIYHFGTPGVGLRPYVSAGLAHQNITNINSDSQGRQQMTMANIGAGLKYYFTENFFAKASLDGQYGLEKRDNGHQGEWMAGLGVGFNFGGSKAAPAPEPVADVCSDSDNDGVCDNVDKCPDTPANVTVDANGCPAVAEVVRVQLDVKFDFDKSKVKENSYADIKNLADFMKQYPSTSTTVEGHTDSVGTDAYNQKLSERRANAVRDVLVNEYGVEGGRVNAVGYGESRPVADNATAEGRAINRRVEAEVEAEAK
# B1: PA-I: purified lectin/adhesin of P. aeruginosa, four 13 kDa subunits, binds D-galactose (protein, UniProt Q05097 2-122, looked up)
# PA-I galactophilic lectin: AWKGEVLANNEAGQVTSIIYNPGDVITIVAAGWASYGPTQKWGPQGDREHPDQGLICHDAFCGALVMKIGNSGTIPVNTGLFRWVAPNNVQGAITLIYNDVPGTYGNNSGSFSVNIGKDQS
# B2: adenosine deaminase: enzyme added to deplete the media of adenosine (protein, UniProt P00813 2-363, looked up)
# Adenosine deaminase: AQTPAFDKPKVELHVHLDGSIKPETILYYGRRRGIALPANTAEGLLNVIGMDKPLTLPDFLAKFDYYMPAIAGCREAIKRIAYEFVEMKAKEGVVYVEVRYSPHLLANSKVEPIPWNQAEGDLTPDEVVALVGQGLQEGERDFGVKARSILCCMRHQPNWSPKVVELCKKYQQQTVVAIDLAGDETIPGSSLLPGHVQAYQEAVKSGIHRTVHAGEVGSAEVVKEAVDILKTERLGHGYHTLEDQALYNRLRQENMHFEICPWSSYLTGAWKPDTEHAVIRLKNDQANYSLNTDDPLIFKSTLDTDYQMTKRDMGFTEEEFKRLNINAAKSSFLPEDEKRELLDLLYKAYGMPPSASAGQNL
# Assays:
# [1] = test system: P. aeruginosa PA27853/PLL-EGFP
# [2] = test system: P. aeruginosa (strain PAO1) whole cells and membrane fractions; format: binding, Pseudomonas aeruginosa
# [3] = test system: P. aeruginosa PAO1; format: cell-based, Pseudomonas aeruginosa
# [4] = test system: Endothelial cells
# [5] = test system: intestinal epithelial cells; details: 0.6% solution; cited from earlier work
# [6] = test system: PA-I lectin/adhesin expression in P. aeruginosa; format: cell-based, Pseudomonas aeruginosa
# [7] = test system: Endothelial cells; test: Pretreatment of endothelial cells followed by S1P or HMW PEG challenge (TEER); format: cell-based
# [8] = molecular target: protein on the surface of whole cells of P. aeruginosa (strain PAO1)
# [9] = test system: Caco-2 cells; test: TEER of Caco-2 monolayers inoculated with PA27853 with IFN-γ; format: cell-based
# Excerpt: In addition, strains were exposed to apical media from Caco-2 cells basolaterally exposed to one or more of the various epithelial-derived cytokines. Basolateral exposure of Caco-2 cells to the combination of IFN γ and TNF α activates cellular signaling proteins that dramatically alter tight junctional proteins and function. Media from Caco-2 cells exposed to various combinations of these cytokines had no effect on PA-I expression. However, IFN-γ alone induced a direct effect on PA-I expression while none of the other compounds alone had any effect (FIG. 4). […] Using ELISA, immunofluorescence microscopy, and flow cytometry, the binding characteristics of IFNγ were determined for both whole bacteria and membrane fractions of P. aeruginosa. […] These effects were also observed with strain PAO1. […] This protein can also be immunoprecipitated from E. coli (FIG. 6C). Next, IFN-γ binding specificity to whole bacterial cells was determined using reiterative binding studies in the presence of various gram-negative bacterial strains, including P. aeruginosa. […] Finally, in order to determine if PA-I was functionally expressed in PA27853 in the presence IFN-γ, PA27853 was inoculated onto Caco-2 cell monolayers in the presence of IFN-γ and the effect on barrier dysregulating dynamics of PA27853 against this cell line were assessed to determine if IFN-γ shifted the dynamics. […]
# [10] = molecular target: T1, OprF; test: Binding of IFN-γ to purified OprF (ELISA); details: dose-dependent
# [11] = test system: rhlI / C4-HSL in P. aeruginosa PAO1; test: Quorum sensing activation (rhlI mRNA, C4-HSL in supernatants); format: cell-based, Pseudomonas aeruginosa
# [12] = test system: human lung microvessel endothelial cells (HLMVEC); test: Transendothelial electrical resistance (TEER) by ECIS, HMW PEG in serum-free EBM; format: cell-based
# [13] = test system: ERK and MLC phosphorylation; test: ERK and MLC phosphorylation by Western blot; format: cell-based, human; details: 1 μM S1P, 5 minutes
# [14] = test system: HPAECs; test: Intracellular calcium (Fura-2); format: cell-based, human; details: 1 U/ml thrombin; 1 μM S1P
# [15] = test system: mice inoculated with PA27853; test: Mice with slow release morphine pellets drinking PA27853
# [16] = test system: MDCK monolayers; test: Purified PA-I on epithelial monolayers (TEER, exotoxin A flux); format: cell-based
molecule,measurement,setting,value
OC[C@H]1O[C@@H](n2cnc3c(O)ncnc32)[C@H](O)[C@@H]1O [inosine],timing of PA-I induction compared to adenosine,[1],induced PA-I expression at an earlier time point and at lower cell densities (OD) compared to adenosine
same,concentration inducing PA-I expression relative to adenosine,[1]; less than adenosine,10 fold
C[C@@H](O)C(=O)O [D-lactate],PA-I promoter activity / expression (fluorescence),[1],had no effect on PA-I promoter activity
IL-10: human cytokine,binding to P. aeruginosa cells / cell membranes (ELISA),[2],No binding was observed
"COC(=O)c1ccccc1N [MA, methyl anthranilate]","ability of U-50,488 to enhance PCN production",[3],"inhibited the ability of U-50,488 to enhance PCN production; also recorded: attenuated the ability of U-50,488 to enhance PCN production"
High Molecular Weight PolyEthylene Glycol [HMW PEG],exotoxin A-induced cytotoxicity,[4],completely protected
OC[C@H]1O[C@H](OCC2O[C@@H](O)[C@H](O)[C@@H](O)[C@@H]2O)[C@H](O)[C@@H](O)[C@H]1O (some centres unmarked) [mellibiose],adhesion of P. aeruginosa to intestinal epithelial cells,[5],markedly decreased adhesion to intestinal epithelial cells
IL-4: human cytokine,binding to P. aeruginosa cells / cell membranes (ELISA),[2],No binding was observed
"Oc1ccc2c3c1O[C@H]1c4[nH]c5c(c4C[C@@]4(O)[C@@H](C2)N(CC2CC2)CC[C@]314)C[C@@]1(O)[C@H]2Cc3ccc(O)c4c3[C@@]1(CCN2CC1CC1)[C@H]5O4 [NOR, nor-binaltorphimine]","U-50,488-enhanced PCN production",[3],completely inhibited enhanced PCN production
C[C@H](O)C(=O)O [L-lactate],PA-I promoter activity / expression (fluorescence),[1],had no effect on PA-I promoter activity
NC[C@H](O)c1ccc(O)c(O)c1 [norepinephrine],PA-I expression in vitro,[6],did not change PA-I expression; also recorded: PA-I expression was not affected by this compound
CCCCCCCCCCCCCC(=O)O[C@@H]1[C@@H](C)[C@@]2(O)[C@@H](C=C(CO)C[C@]3(O)C(=O)C(C)=C[C@@H]23)[C@@H]2C(C)(C)[C@]12OC(C)=O [PMA],time for TEER increase to return to baseline,"[7]; 100 nM PMA, baseline 1250 ohm",8 h
TGF-β,binding to P. aeruginosa cells / cell membranes (ELISA),[2],No binding was observed
Nc1ncnc2c1ncn2[C@@H]1O[C@H](COP(=O)(O)OP(=O)(O)O)[C@@H](O)[C@H]1O [ADP],PA-I promoter activity / expression (fluorescence),[1],no evident inducing effects
recombinant human IFN-γ (rH IFN-γ) (from UniProt P01579 24-166) (ligand),percent of bacterial cells that bound IFN-γ,[8],73%
"CC(=O)N[C@H]1C(O)O[C@H](CO)[C@H](O)[C@@H]1O (stereo partly drawn) [GalNAc, N-acetyl-D-galactosamine]",adhesion of P. aeruginosa to intestinal epithelial cells,[5],markedly decreased adhesion to intestinal epithelial cells
Nc1ncnc2c1ncn2[C@@H]1O[C@H](COP(=O)(O)OP(=O)(O)OP(=O)(O)O)[C@@H](O)[C@H]1O [ATP],PA-I promoter activity / expression (fluorescence),[1],no evident inducing effects
"IFN-γ: recombinant human interferon gamma, immune cytokine",pyocyanin production,[3],increased pyocyanin production
same,PA-I expression in vitro,[6],induced PA-I expression
same,concentration giving the greatest increase in PA-I protein,[6],100 ng/mL
same,induction of PA-I mRNA (Northern blot),[6],Induction of PA-I mRNA was observed
same,PA27853-induced decrease in Caco-2 TEER,"[9]; 5 hour time point, PA27853 alone decreased TEER by 60%",enhanced in the presence of IFN-γ
same,"Caco-2 TEER, IFN-γ alone",[9]; without bacteria,Neither media nor IFN-γ alone altered TEER
same,bacterial cells that bound IFN-γ,[2],73%±3.2%
same,binding to P. aeruginosa cells / cell membranes (ELISA),[2],avidly bound to whole fixed cells of P. aeruginosa in a dose-dependent manner
same,binding to purified OprF,[10],purified OprF directly binds human IFN-γ
same,rhlI transcription (Northern blot),[11]; PAO1,induced rhlI transcription
same,C4-HSL synthesis,"[11]; PAO1, 100 ng/ml IFN-γ",C4-HSL synthesis was increased
same,PA-I promoter activity / expression (fluorescence),[1],Only IFN-γ induced PA-I promoter activity
"CCCCCCCCCCCCC/C=C/[C@@H](O)[C@@H](N)COP(=O)(O)O [S1P, sphingosine 1-phosphate]",time to maximum barrier enhancing effect,[12]; TEER,10 to 15 min
same,increase in resistance (maximum barrier enhancing effect),"[12]; TEER, human pulmonary microvessel EC",40%
same,ERK phosphorylation,[13],drastic increase in ERK phosphorylation
same,intracellular calcium on stimulation of ECs,[14],induced intracellular calcium spikes
same,effect of PMA pretreatment on the response to stimulation,"[7]; pretreated 100 nM PMA 24 hours, challenge 1 μM S1P or 8% HMW PEG",Blocked
same,effect of PTX pretreatment on the response to stimulation,"[7]; pretreated 100 ng/ml PTX 4 hours, challenge 1 μM S1P or 8% HMW PEG",Blocked
same,effect of S1P pretreatment on the response to stimulation,"[7]; pretreated 1 μM S1P 24 hours, challenge 1 μM S1P or 8% HMW PEG",No effect
same,effect of FTY720 pretreatment on the response to stimulation,"[7]; pretreated 10 μM FTY720 24 hours, challenge 1 μM S1P or 8% HMW PEG",Blunted
same,effect of FTY analog pretreatment on the response to stimulation,"[7]; pretreated 10 μM FTY analog 24 hours, challenge 1 μM S1P or 8% HMW PEG",Blunted
dynorphin,PCN production,[3],enhanced PCN production in a dose-dependent manner
EGF: human cytokine tested for membrane binding,binding to P. aeruginosa cells / cell membranes (ELISA),[2],No binding was observed
"CCCC(=O)N[C@H]1CCOC1=O [C4-HSL, C4-homoserine lactone]",PCN production in mvfR mutants,[3],none of these mutants produced PCN
same,bacterial growth in TSB media,[3],Neither compound had an effect on bacterial growth
same,cell density at onset of PCN production,[3],a shift in the production of PCN to lower cell densities
same,PA-I expression in vitro,[6],induced PA-I expression
same,induction of PA-I mRNA (Northern blot),[6],Induction of PA-I mRNA was observed
Nc1ncnc2c1ncn2[C@@H]1O[C@H](COP(=O)(O)O)[C@@H](O)[C@H]1O [AMP],PA-I promoter activity / expression (fluorescence),[1],no evident inducing effects
CN1CC[C@]23c4c5ccc(O)c4O[C@H]2[C@@H](O)C=C[C@H]3[C@H]1C5 [morphine],increase in PA-I mRNA,[6],four-fold increase
same,increase in PA-I mRNA,"[6]; PA27853, morphine 13 μM, quantitative RT-PCR",4 fold
same,mortality,[15]; PA27853,significant mortality
same,mice developing severe sepsis,[15]; PA27853 1×10^8 cfu/ml daily,4/4
thrombin,decrease in resistance,"[12]; thrombin 1 U/ml, control cells",over 50%
same,maximum decrease in resistance,"[12]; thrombin 1 U/ml, control cells",approximately 1200 ohm
same,intracellular calcium on stimulation of ECs,[14],induced intracellular calcium spikes
B1,TEER of epithelial cells,[16]; purified PA-I,decreased the TEER of epithelial cells to the same degree as P. aeruginosa
same,increase in exotoxin A flux across MDCK cells,[16]; when TEER decreased below 50% of control by pure PA-I protein,five-fold increase
B2,PA-I expression after depletion of adenosine from HIF-1-α activated Caco-2 media,[1]; Caco-2,even greater increase in PA-I expression
